IC50 and Ki data for 18 compounds are collected here from ChEMBL document CHEMBL1909046, “DrugMatrix in vitro pharmacology data”.

The structures appear in SMILES notation.

Test [1] addresses Melanocortin receptor 5 (Homo sapiens, UniProt P33032). It counts as cell membranes, HEK293, Membrane. To be noted: hek293.
Test [2] can be described thus: DRUGMATRIX: Sodium/nucleoside co-transporter radioligand binding (ligand: nitrobenzylthioinosine). To be noted: Not Active = under 50% inhibition at 10 µM. It counts as cell membranes, Cavia porcellus, Dunkin-Hartley, Cerebral cortex, Membrane.
Test [3] has as its target T1, Adenosine receptor A3 (Homo sapiens, UniProt P0DMS8).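 Note: radioligand binding assay with AB-MECA serving as the labeled ligand; in other assays of this panel Not Active means under 50% inhibition at 10 µM.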
T1 sequence (P0DMS8 whole entry): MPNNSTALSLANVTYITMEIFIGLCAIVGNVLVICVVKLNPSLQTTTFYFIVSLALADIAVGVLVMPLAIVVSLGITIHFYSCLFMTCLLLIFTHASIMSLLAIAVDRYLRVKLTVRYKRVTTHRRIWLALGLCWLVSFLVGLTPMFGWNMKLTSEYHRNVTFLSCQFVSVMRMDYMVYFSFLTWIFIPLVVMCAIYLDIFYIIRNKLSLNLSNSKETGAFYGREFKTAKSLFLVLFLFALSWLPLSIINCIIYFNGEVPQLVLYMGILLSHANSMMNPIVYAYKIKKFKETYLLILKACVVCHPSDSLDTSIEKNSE
Type of test: cell membranes, CHO-K1, Membrane.

Test [4] concerns the target T2, Neuropeptide Y receptor type 1 (Homo sapiens, UniProt P25929). Note: in other assays of this panel Not Active means under 50% inhibition at 10 µM.
T2 sequence (P25929 whole entry): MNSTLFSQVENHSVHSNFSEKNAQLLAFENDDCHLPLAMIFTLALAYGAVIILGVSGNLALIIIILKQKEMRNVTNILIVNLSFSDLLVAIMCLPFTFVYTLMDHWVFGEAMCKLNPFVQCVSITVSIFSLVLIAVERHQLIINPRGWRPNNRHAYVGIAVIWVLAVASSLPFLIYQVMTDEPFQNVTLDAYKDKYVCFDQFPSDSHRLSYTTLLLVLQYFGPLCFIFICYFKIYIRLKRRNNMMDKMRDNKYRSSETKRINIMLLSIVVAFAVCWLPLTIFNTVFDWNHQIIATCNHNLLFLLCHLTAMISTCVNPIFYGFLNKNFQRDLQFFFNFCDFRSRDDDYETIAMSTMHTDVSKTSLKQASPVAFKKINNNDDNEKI
It counts as cell membranes, Membrane. To be noted: sk-n-mc.

Test [5] addresses 5-hydroxytryptamine receptor 6 (Homo sapiens, UniProt P50406). Type of test: cell membranes, HeLa, Membrane. To be noted: hela.
In test [6] the target is T3, Alpha-2A adrenergic receptor (Homo sapiens, UniProt P08913). Note: in other assays of this panel Not Active means under 50% inhibition at 10 µM.
T3 sequence (P08913 whole entry): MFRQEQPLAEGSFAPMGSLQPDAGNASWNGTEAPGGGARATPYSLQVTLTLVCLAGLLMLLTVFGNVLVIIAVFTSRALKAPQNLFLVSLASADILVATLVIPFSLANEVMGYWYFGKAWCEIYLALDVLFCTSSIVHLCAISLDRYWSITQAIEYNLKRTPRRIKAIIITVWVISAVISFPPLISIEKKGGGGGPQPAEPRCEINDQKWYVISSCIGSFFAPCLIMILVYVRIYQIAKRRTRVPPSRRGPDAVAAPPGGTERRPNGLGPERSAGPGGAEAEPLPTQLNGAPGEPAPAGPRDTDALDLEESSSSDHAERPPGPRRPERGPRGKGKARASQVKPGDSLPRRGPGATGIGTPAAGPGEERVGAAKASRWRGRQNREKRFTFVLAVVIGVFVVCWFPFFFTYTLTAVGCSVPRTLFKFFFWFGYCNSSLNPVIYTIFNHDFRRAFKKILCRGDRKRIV
It counts as cell membranes, Sf9, Membrane. Particulars: sf9.

Test [7] is described as follows: DRUGMATRIX: GABAA, Chloride Channel, TBOB radioligand binding (ligand: [3H] TBOB). Type of test: cell membranes, Rattus norvegicus, Wistar, Cerebral cortex, Membrane. Particulars: Not Active = under 50% inhibition at 10 µM.

Melanocortin receptor 5, sequence (P33032 whole entry): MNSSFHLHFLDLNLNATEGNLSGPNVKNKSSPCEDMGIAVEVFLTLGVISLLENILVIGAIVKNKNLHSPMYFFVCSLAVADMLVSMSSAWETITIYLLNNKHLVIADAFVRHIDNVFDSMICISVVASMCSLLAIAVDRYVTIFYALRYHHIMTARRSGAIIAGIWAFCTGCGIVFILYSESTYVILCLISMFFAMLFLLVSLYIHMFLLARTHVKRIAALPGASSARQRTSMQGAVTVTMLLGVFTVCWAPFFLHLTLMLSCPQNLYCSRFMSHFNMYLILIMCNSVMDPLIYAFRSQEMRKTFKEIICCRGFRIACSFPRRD
5-hydroxytryptamine receptor 6, sequence (P50406 whole entry): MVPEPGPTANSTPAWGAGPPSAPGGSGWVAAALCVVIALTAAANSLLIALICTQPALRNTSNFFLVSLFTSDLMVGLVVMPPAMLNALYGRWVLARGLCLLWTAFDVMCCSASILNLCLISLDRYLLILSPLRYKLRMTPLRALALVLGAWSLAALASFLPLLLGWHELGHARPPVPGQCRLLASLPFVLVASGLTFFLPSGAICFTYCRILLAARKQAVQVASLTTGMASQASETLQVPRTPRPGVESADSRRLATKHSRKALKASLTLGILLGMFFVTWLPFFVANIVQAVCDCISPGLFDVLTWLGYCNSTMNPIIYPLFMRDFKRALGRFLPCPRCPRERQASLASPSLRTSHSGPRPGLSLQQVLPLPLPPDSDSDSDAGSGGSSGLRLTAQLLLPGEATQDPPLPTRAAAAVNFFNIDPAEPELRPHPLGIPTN

Usually IC50 stands for the concentration that inhibits the measured activity by half. A word on the Ki: it is the dissociation constant of the complex between target and ligand, obtained from inhibition or displacement. As to `CCc1oc2ccccc2c1C(=O)c1cc(Br)c(O)c(Br)c1` [BENZBROMARONE], the half-inhibitory concentration (IC50) result in test [1] was “Not Active”; in test [2], “Not Active”; in test [3] (read-out: IC50), 5.22 µM; in test [4], “Not Active”; in test [5] it was “Not Active”; in test [6], “Not Active”. Moreover, the 50% inhibitory concentration (IC50) entry in test [7] is recorded as “Not Active”. The Ki result was “Not Active” in test [2], 2.95 µM in test [3] (read-out: Ki) and “Not Active” in test [7].
With `O=c1cc(-c2ccccc2)oc2ccc3ccccc3c12` [BETA-NAPHTHOFLAVONE], the IC50 result in test [1], in test [2], in test [3] (cho-k1), in test [4], in test [5] and in test [6] was “Not Active” each time. The IC50 result in test [7] is given as “Not Active”. For the same compound, the Ki entry in test [2] and in test [7] was “Not Active” in each case.
Turning to `CS(=O)(=O)OCCCCOS(C)(=O)=O` [BUSULFAN], the IC50 entry in test [1], in test [2], in test [3] (cho-k1), in test [4], in test [5] and in test [6] was “Not Active” throughout. Moreover, the IC50 entry in test [7] was “Not Active”. Besides, the Ki result in test [2] and in test [7] was “Not Active” throughout.
For `O=C(/C=C/c1ccc(O)c(O)c1)OCCc1ccccc1` [CAFFEIC ACID PHENETHYL ESTER], the IC50 entry in test [1], in test [2], in test [3] (cho-k1), in test [4], in test [5] and in test [6] was “Not Active” in each case. Besides, the IC50 result in test [7] is “Not Active”. In addition, the Ki entry in test [2] and in test [7] was “Not Active” in each case.
As for `COc1cc(CNC(=O)CCCC/C=C/C(C)C)ccc1O` [CAPSAICIN], the IC50 result in test [1], in test [2], in test [3] (cho-k1), in test [4], in test [5] and in test [6] was “Not Active” each time. The IC50 result in test [7] is recorded as “Not Active”. Also, the Ki result in test [2] and in test [7] was “Not Active” in each case.
In the case of `NC(=O)N1c2ccccc2C=Cc2ccccc21` [CARBAMAZEPINE], the IC50 result in test [1], in test [2], in test [3] (cho-k1), in test [4], in test [5] and in test [6] was “Not Active” in each case. Besides, the IC50 entry in test [7] is “Not Active”. Moreover, the Ki result in test [2] and in test [7] was “Not Active” each time.
Consider `CCOC(=O)n1ccn(C)c1=S` [CARBIMAZOLE], for which the concentration for half-maximal inhibition (IC50) result in test [1], in test [2], in test [3] (cho-k1), in test [4], in test [5] and in test [6] was “Not Active” throughout. In addition, the IC50 entry in test [7] is listed as “Not Active”. Besides, the inhibition constant (Ki) result in test [2] and in test [7] was “Not Active” each time.
`Oc1ccccc1O` [CATECHOL]: the IC50 entry in test [1], in test [2], in test [3] (cho-k1), in test [4], in test [5] and in test [6] was “Not Active” in each case. Also, the IC50 result in test [7] is recorded as “Not Active”. In addition, the Ki entry in test [2] and in test [7] was “Not Active” throughout.
With `CO[C@@]1(NC(=O)CSCC#N)C(=O)N2C(C(=O)O)=C(CSc3nnnn3C)CS[C@@H]21` [CEFMETAZOLE], the IC50 result in test [1], in test [2], in test [3] (cho-k1), in test [4], in test [5] and in test [6] was “Not Active” throughout. The IC50 result in test [7] is “Not Active”. The inhibition constant Ki entry in test [2] and in test [7] was “Not Active” each time.
For the compound `CN(C(=O)CCCOc1ccc2[nH]c(=O)ccc2c1)C1CCCCC1` [CILOSTAMIDE], the IC50 result in test [1], in test [2], in test [3] (cho-k1), in test [4], in test [5] and in test [6] was “Not Active” in each case. In addition, in test [7], the IC50 result is reported as “Not Active”. For the same compound, the Ki result in test [2] and in test [7] was “Not Active” each time.
In the case of `CC(C)(Oc1ccc(C2CC2(Cl)Cl)cc1)C(=O)O` (stereo not drawn) [CIPROFIBRATE], the IC50 entry in test [1], in test [2], in test [3] (cho-k1), in test [4], in test [5] and in test [6] was “Not Active” throughout. Besides, in test [7], the IC50 entry was “Not Active”. Further, the Ki result in test [2] and in test [7] was “Not Active” throughout.
On to `Nc1nc(Cl)nc2c1ncn2[C@H]1C[C@H](O)[C@@H](CO)O1` [CLADRIBINE], for which the IC50 entry in test [1], in test [2], in test [3] (cho-k1), in test [4], in test [5] and in test [6] was “Not Active” in each case. The IC50 result in test [7] is “Not Active”. The Ki entry in test [2] and in test [7] was “Not Active” each time.
As for `CC[C@H]1OC(=O)[C@H](C)[C@@H](O[C@H]2C[C@@](C)(OC)[C@@H](O)[C@H](C)O2)[C@H](C)[C@@H](O[C@@H]2O[C@H](C)C[C@H](N(C)C)[C@H]2O)[C@](C)(OC)C[C@@H](C)C(=O)[C@H](C)[C@@H](O)[C@]1(C)O` [CLARITHROMYCIN], the IC50 entry in test [1], in test [2], in test [3] (cho-k1), in test [4], in test [5] and in test [6] was “Not Active” each time. In addition, the 50% inhibitory concentration (IC50) result in test [7] was “Not Active”. The Ki entry in test [2] and in test [7] was “Not Active” in each case.
As for `CCC[C@@H]1C[C@@H](C(=O)N[C@@H]([C@H]2O[C@H](SC)[C@H](O)[C@@H](O)[C@H]2O)[C@H](C)Cl)N(C)C1` [CLINDAMYCIN], the IC50 result in test [1], in test [2], in test [3] (cho-k1), in test [4], in test [5] and in test [6] was “Not Active” in each case. For the same compound, the IC50 entry in test [7] is “Not Active”. The Ki result in test [2] and in test [7] was “Not Active” each time.
For `O=C(O)c1cc(=O)c2c(OCC(O)COc3cccc4oc(C(=O)O)cc(=O)c34)cccc2o1` [CROMOLYN], the concentration for half-maximal inhibition (IC50) result in test [1], in test [2], in test [3] (cho-k1), in test [4], in test [5] and in test [6] was “Not Active” throughout. In test [7], the concentration for half-maximal inhibition (IC50) result is “Not Active”. Further, the Ki entry in test [2] and in test [7] was “Not Active” in each case.
In the case of `O=P1(N(CCCl)CCCl)NCCCO1` (stereo not drawn) [CYCLOPHOSPHAMIDE ANHYDROUS], the IC50 result in test [1], in test [2], in test [3] (cho-k1), in test [4], in test [5] and in test [6] was “Not Active” each time. The half-maximal inhibitory concentration (IC50) result in test [7] is “Not Active”. The inhibition constant (Ki) entry in test [2] and in test [7] was “Not Active” throughout.
As for `CC(=O)O[C@]1(C(C)=O)CC[C@H]2[C@@H]3C=C(Cl)C4=CC(=O)[C@@H]5C[C@@H]5[C@]4(C)[C@H]3CC[C@@]21C` [CYPROTERONE ACETATE], the IC50 result in test [1], in test [2], in test [3] (cho-k1), in test [4], in test [5] and in test [6] was “Not Active” each time. The IC50 result in test [7] is recorded as “Not Active”. Also, the Ki result in test [2] and in test [7] was “Not Active” each time.
`Nc1nc(N)nc(NC2CC2)n1` [CYROMAZINE]: the half-maximal inhibitory concentration (IC50) entry in test [1], in test [2], in test [3] (cho-k1), in test [4], in test [5] and in test [6] was “Not Active” throughout. Moreover, in test [7], the IC50 result is on record as “Not Active”. Also, the inhibitory constant (Ki) result in test [2] and in test [7] was “Not Active” throughout.
